Measurements from ChEMBL document CHEMBL5365473, “Novel Sulfonylurea-Based NLRP3 Inflammasome Inhibitor for Efficient Treatment of Nonalcoholic Steatohepatitis, Endotoxic Shock, and Colitis” (J Med Chem, 2023).
Activity calls are given as the source filed them. No cut-off for these calls is given here.

Assays:
[1] = Effect on immune cell numbers in MCS diet-fed C57BL/6 mouse assessed as effect on CD45 expression at 40 mg/kg, po administered via gavage for 5 weeks by immunofluorescence staining based analysis; format: toxicity, organism-based; details: in vivo, 840 h
Mus musculus [2] = assay: Antiinflammatory activity against MCD diet-induced NASH C57BL/6 mouse model assessed as reduction in balloon dilatation in liver at 40 mg/kg, po administered via gavage for 5 weeks by Masson's trichrome staining based analysis; format: functional, organism-based
Mus musculus [3] = assay: Antiinflammatory activity against MCD diet-induced NASH C57BL/6 mouse model assessed as improvement in liver morphology at 40 mg/kg, po administered via gavage for 5 weeks by Masson's trichrome staining based analysis; format: functional, organism-based
Mus musculus [4] = assay: Antiinflammatory activity against MCD diet-induced NASH C57BL/6 mouse model assessed as reduction in balloon dilatation in liver at 40 mg/kg, po administered via gavage for 5 weeks by Sirius red staining based analysis; format: functional, organism-based
Mus musculus [5] = assay: Antiinflammatory activity against MCD diet-induced NASH C57BL/6 mouse model assessed as reduction in liver steatosis at 40 mg/kg, po administered via gavage for 5 weeks by Sirius red staining based analysis; format: functional, organism-based
[6] = Toxicity against male ICR mouse assessed as effect on body weight at 200 to 500 mg/kg administered via gavage for 12 days; format: organism-based; details: in vivo, po, 288 h, dose 200-500 mg/kg, time 12 day
[7] = Toxicity against female ICR mouse assessed as effect on brain weight at 200 to 500 mg/kg administered via gavage for 12 days; format: organism-based; details: in vivo, po, 288 h, dose 200-500 mg/kg, time 12 day
[8] = Toxicity against female ICR mouse assessed as effect on kidney weight at 200 to 500 mg/kg administered via gavage for 12 days; format: organism-based; details: in vivo, po, 288 h, dose 200-500 mg/kg, time 12 day
[9] = Toxicity against male ICR mouse assessed as effect on brain weight at 200 to 500 mg/kg administered via gavage for 12 days; format: organism-based; details: in vivo, po, 288 h, dose 200-500 mg/kg, time 12 day
[10] = Toxicity against male ICR mouse assessed as effect on lung weight at 200 to 500 mg/kg administered via gavage for 12 days; format: organism-based; details: in vivo, po, 288 h, dose 200-500 mg/kg, time 12 day
[11] = Toxicity against female ICR mouse assessed as effect on plasma AST level at 200 to 500 mg/kg administered via gavage for 12 days; format: organism-based; details: in vivo, po, 288 h, dose 200-500 mg/kg, time 12 day
[12] = Toxicity against male ICR mouse assessed as effect on plasma AST level at 200 to 500 mg/kg administered via gavage for 12 days; format: organism-based; details: in vivo, po, 288 h, dose 200-500 mg/kg, time 12 day
[13] = Toxicity against male ICR mouse assessed as effect on plasma ALT level at 200 to 500 mg/kg administered via gavage for 12 days; format: organism-based; details: in vivo, po, 288 h, dose 200-500 mg/kg, time 12 day
[14] = biological target: NACHT, LRR and PYD domains-containing protein 3 (Mus musculus) (UniProt Q8R4B8); assay: Inhibition of NLRP3 inflammasome in mouse J774.A1 cells assessed as inhibition of caspase-1 activation at 30 nM primed with LPS for 4.5 hrs followed by incubation with compound for 24 hrs and later stimulated with nigericin for 1 hr by immunoblot analysis; format: cell-based; details: time 25.0 hrs
[15] = biological target: NLR family CARD domain-containing protein 4 (Mus musculus) (UniProt Q3UP24); assay: Inhibition of NLRC4 inflammasome in mouse J774.A1 cells assessed as inhibition of IL-1 beta secretion at 30 nM primed with LPS for 4.5 hrs followed by incubation with compound for 24 hrs and later stimulated with flagellin for 24 hrs by immunoblot analysis; format: cell-based; details: time 48.0 hrs
THP-1 = assay: Effect on mitochondrial function in PMA-induced differentiated human THP-1 cells assessed as effect on extracellular ATP-induced decrease in mitochondrial membrane potential at 30 nM pretreated with compound for 24 hrs followed by stimulation with LPS for 4.5 hrs and ATP for 1 hr by MitoTracker red dye based confocal microscopy; format: functional, cell-based; details: time 29.5 hrs
[16] = Tmax in ICR mouse at 10 mg/kg, po by LC-MS/MS analysis; format: ADME, organism-based; details: in vivo
[17] = Cmax in ICR mouse at 10 mg/kg, po by LC-MS/MS analysis; format: ADME, organism-based; parameters: dose 10 mg/kg, route po; details: in vivo
[18] = AUC (0 to infinity) in ICR mouse at 10 mg/kg, po by LC-MS/MS analysis; format: ADME, organism-based; parameters: dose 10 mg/kg, route po; details: in vivo
[19] = Drug uptake in Sprague-Dawley rat stomach at 50 mg/kg, po measured for 24 hrs by LC-MS/MS analysis; format: ADME, organism-based; details: in vivo
[20] = Drug uptake in Sprague-Dawley rat liver at 50 mg/kg, po measured for 24 hrs by LC-MS/MS analysis; format: ADME, organism-based; details: in vivo
[21] = Drug uptake in Sprague-Dawley rat heart at 50 mg/kg, po measured for 24 hrs by LC-MS/MS analysis; format: ADME, organism-based; details: in vivo
Mus musculus [22] = assay: Antiinflammatory activity against MCD diet-induced NASH C57BL/6 mouse model assessed as protection against MCD diet-induced increase in liver to body weight ratio at 40 mg/kg, po administered via gavage for 5 weeks; format: functional, organism-based
Mus musculus [23] = assay: Antiinflammatory activity against MCD diet-induced NASH C57BL/6 mouse model assessed as improvement in liver morphology at 40 mg/kg, po administered via gavage for 5 weeks by H and E staining based analysis; format: functional, organism-based
Mus musculus [24] = assay: Antiinflammatory activity against MCD diet-induced NASH C57BL/6 mouse model assessed as reduction in liver steatosis at 40 mg/kg, po administered via gavage for 5 weeks by H and E staining based analysis; format: functional, organism-based
Mus musculus [25] = assay: Antiinflammatory activity against MCD diet-induced NASH C57BL/6 mouse model assessed as reduction in liver fibrosis at 40 mg/kg, po administered via gavage for 5 weeks by H and E staining based analysis; format: functional, organism-based
Mus musculus [26] = assay: Antiinflammatory activity against MCD diet-induced NASH C57BL/6 mouse model assessed as improvement in liver morphology at 40 mg/kg, po administered via gavage for 5 weeks by Sirius red staining based analysis; format: functional, organism-based
Mus musculus [27] = assay: Antiinflammatory activity against MCD diet-induced NASH C57BL/6 mouse model assessed as reduction in TUNEL-positive hepatic cells at 40 mg/kg, po administered via gavage for 5 weeks by TUNEL assay; format: functional, organism-based
Mus musculus [28] = assay: Antiinflammatory activity against LPS-induced lethal septic shock C57BL/6 mouse model assessed as increase in animal's survival rate at 40 mg/kg, ip administered for 1 hr prior to LPS challenge and measured for 72 hrs; format: functional; details: time 73 hrs
Mus musculus [29] = assay: Antiinflammatory activity against LPS-induced lethal septic shock C57BL/6 mouse model assessed as increase in animal's survival rate at 20 mg/kg, ip administered for 1 hr prior to LPS challenge and measured for 72 hrs; format: functional; details: time 73 hrs
Mus musculus [30] = assay: Antiinflammatory activity against LPS-induced lethal septic shock C57BL/6 mouse model assessed as reduction in serum IL-1 beta level at 20 to 40 mg/kg, ip administered for 1 hr prior to LPS challenge and measured after 2.5 hrs by ELISA; format: functional, organism-based; details: dose 20-40 mg/kg, time 3.5 hrs
Mus musculus [31] = assay: Antiinflammatory activity against DSS-induced ulcerative colitis C57BL/6 mouse assessed as reduction in crypt necrosis in colon at 10 mg/kg, ip administered for 9 days and measured on day 10 by H and E staining based analysis; format: functional, organism-based; details: time 10.0 day
Mus musculus [32] = assay: Antiinflammatory activity against DSS-induced ulcerative colitis C57BL/6 mouse assessed as reduction in massive loss of goblet cells in colon at 10 mg/kg, ip administered for 9 days and measured on day 10 by H and E staining based analysis; format: functional, organism-based; details: time 10.0 day

Sequence of NACHT, LRR and PYD domains-containing protein 3 (Mus musculus) (Q8R4B8 whole entry, the tested form may be a part): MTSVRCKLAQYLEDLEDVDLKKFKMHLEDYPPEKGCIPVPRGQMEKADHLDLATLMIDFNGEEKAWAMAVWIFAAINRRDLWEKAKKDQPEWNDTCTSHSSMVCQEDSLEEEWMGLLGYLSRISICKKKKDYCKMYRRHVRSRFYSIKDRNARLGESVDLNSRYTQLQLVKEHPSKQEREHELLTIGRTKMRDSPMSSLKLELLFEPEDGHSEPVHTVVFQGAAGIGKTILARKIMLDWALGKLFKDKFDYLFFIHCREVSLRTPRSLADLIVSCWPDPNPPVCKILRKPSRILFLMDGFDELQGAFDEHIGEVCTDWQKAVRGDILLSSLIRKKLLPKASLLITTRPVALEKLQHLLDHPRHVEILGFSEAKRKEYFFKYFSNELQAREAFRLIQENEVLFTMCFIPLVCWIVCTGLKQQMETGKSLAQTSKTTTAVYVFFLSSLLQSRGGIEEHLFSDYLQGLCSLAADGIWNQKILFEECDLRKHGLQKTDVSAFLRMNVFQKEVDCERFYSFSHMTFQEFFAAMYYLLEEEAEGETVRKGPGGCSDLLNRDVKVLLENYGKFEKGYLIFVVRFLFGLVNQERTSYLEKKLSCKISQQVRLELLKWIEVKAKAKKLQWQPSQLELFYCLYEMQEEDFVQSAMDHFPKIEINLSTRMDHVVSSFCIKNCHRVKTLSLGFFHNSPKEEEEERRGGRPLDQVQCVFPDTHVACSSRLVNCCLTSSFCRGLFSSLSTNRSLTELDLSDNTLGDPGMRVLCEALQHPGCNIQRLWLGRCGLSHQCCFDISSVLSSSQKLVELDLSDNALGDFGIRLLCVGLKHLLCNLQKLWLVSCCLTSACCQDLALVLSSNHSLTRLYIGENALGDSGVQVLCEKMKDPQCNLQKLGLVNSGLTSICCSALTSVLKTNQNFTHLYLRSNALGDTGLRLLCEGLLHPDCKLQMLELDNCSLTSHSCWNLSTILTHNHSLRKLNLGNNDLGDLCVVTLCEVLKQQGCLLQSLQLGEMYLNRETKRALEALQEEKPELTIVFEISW
Sequence of NLR family CARD domain-containing protein 4 (Mus musculus) (Q3UP24 whole entry, the tested form may be a part): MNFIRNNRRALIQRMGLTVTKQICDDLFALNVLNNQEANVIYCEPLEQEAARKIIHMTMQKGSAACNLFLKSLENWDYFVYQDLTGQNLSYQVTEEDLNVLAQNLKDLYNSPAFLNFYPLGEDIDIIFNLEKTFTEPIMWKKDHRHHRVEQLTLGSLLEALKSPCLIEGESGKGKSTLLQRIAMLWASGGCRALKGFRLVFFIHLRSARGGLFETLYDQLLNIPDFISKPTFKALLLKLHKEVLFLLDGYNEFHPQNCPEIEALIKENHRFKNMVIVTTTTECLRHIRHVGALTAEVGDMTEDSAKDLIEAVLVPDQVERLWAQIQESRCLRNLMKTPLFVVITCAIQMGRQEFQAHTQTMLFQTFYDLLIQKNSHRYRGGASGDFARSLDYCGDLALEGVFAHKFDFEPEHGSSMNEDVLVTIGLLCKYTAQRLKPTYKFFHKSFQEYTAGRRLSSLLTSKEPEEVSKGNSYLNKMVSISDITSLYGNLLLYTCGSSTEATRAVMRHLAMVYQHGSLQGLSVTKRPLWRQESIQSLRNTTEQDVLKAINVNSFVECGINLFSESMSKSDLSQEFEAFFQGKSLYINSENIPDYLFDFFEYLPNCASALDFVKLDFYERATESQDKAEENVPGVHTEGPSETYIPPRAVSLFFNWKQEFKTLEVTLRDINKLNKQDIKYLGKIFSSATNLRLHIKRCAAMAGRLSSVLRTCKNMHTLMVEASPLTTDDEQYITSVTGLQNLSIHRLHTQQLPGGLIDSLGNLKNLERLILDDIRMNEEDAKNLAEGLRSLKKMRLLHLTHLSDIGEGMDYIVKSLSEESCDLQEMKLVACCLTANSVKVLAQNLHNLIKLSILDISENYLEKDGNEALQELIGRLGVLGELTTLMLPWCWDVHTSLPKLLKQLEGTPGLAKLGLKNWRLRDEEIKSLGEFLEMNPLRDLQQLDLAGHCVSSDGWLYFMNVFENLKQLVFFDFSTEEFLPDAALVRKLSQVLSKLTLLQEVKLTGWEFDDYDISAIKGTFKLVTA

In the case of `CN(C)Cc1ccc(S(=O)(=O)NC(=O)Nc2c3c(cc4c2CCC4)CCC3)cc1`, the Activity [1] is reported as “Non-Toxic”, the Activity (Mus musculus [2]) is reported as “Active” and the Activity (Mus musculus [3]) is reported as “Active”. The Activity (Mus musculus [4]) was “Active”, the Activity (Mus musculus [5]) was “Active” and the Activity [6] was “Non-Toxic”. The Activity [7] was “Non-Toxic”, the Activity [8] was “Non-Toxic” and the Activity [9] was “Non-Toxic”. For the same compound, the Activity [10] was “Non-Toxic”, the Activity [11] was “Non-Toxic” and the Activity [12] was “Non-Toxic”. For the same compound, the Activity [13] was “Non-Toxic”, the inhibition [14] was “Active” and the inhibition [15] was “inactive”. For the same compound, the Activity (THP-1) was “inactive”, the Tmax [16] was 40 min and the Cmax [17] was 33900 ng/mL. The AUC(0-inf) [18] was 222 µg·h/mL, the Drug uptake [19] was “Active” and the Drug uptake [20] was “Active”. For the same compound, the Drug uptake [21] was “Active”, the Activity (Mus musculus [22]) was “Active” and the Activity (Mus musculus [23]) was “Active”. The Activity (Mus musculus [24]) was “Active”, the Activity (Mus musculus [25]) was “Active” and the Activity (Mus musculus [26]) was “Active”. For the same compound, the Activity (Mus musculus [27]) was “Active”, the survival at 40 mg/kg (Mus musculus [28]) was 70% and the survival at 20 mg/kg (Mus musculus [29]) was 20%. For the same compound, the Activity (Mus musculus [30]) was “Active”, the Activity (Mus musculus [31]) was “Active” and the Activity (Mus musculus [32]) was “Active”.
